Earlier results in patent publication US10086032B2, “Method for preparing a Camellia nitidissima Chi lipid-lowering and hypoglycemic agent” (Shenzhen Violin Technology Co., Ltd., priority 2014, dated 2018).

Tested on: model rat with hyperlipidemia
Details: high dose group; lovastatin 0.01 g/kg; 43 days intragastric gavage

Compound: CC[C@H](C)C(=O)O[C@H]1C[C@@H](C)C=C2C=C[C@H](C)[C@H](CC[C@@H]3C[C@@H](O)CC(=O)O3)[C@H]21 [lovastatin]
- HDL-C content of serum: enhance HDL-C content of serum in model rat with hyperlipidemia
